The values that follow come from patent publication US20100286056A1, “COMPOSITIONS FOR REDUCING OXIDATIVE STRESS AND USES THEREOF” (priority 2007, published 2010).

Experiment [1] concerns human dermal fibroblasts. Put plainly: UVA-induced intracellular amplification of ROS (dihydrorhodamine 123, flow cytometry). It counts as cell-based. How it is done: The modulating effect of the tripeptides […]) and Thyrotropin Releasing Hormones (TRH, Protirelin, Thyoliberin, […]) was examined on human dermal fibroblasts that were seeded into 3.5 cm^2 tissue culture dishes in a density of 150,000 per dish in […] medium. Two days after seeding the cells, the medium supplemented with 10% foetal calf serum, 1% L-glutamine and 1% penicillin/streptomycin was exchanged with serum-free RPMI medium and pre-incubated for 24 hours with KPV, […] Subsequently, the cells were exposed to a physiological dose of UVA radiation (10 J/cm^2). Immediately after radiation, the cells were incubated with 5 μM dihydrorhodamine 123 plus 5 mM glucose in phosphate buffer (PBS) for 30 minutes. Subsequently, the cells were trypsinized, resuspended in PBS with 5 mM glucose and analyzed by means of flow cytometry (FACS, FACSCalibur with 488 nm argon laser). The above dihydrorhodamine probe is oxidized in the presence of intracellular ROS into green fluorescent […] and, thus, can be measured fluorometrically. A total of 10×10^3 cells per probe were analyzed and evaluated using CELL-QUEST software. The median of the FL-1 channel was used as parameter for the intracellular ROS amount, since it represents the maximum number of cells with the highest fluorescence. […]

For experiment [2], the system named is B16.F1 melanoma cells. Put plainly: Extracellular melanin accumulation (optical density 405 nm). The settings on record: peptides at 10^-6, 10^-8 and 10^-10 M; NDP-α-MSH 10^-8 M; 72 hrs (FIG. 3). Type of experiment: cell-based, mouse. An excerpt:
It is also preferred that the compounds of the invention have no or merely a negligible melanotropic effect. “Melanotropic effect” means that the compound induces the extracellular melanin accumulation in a cell assay in accordance with the method described in the appended example 2 and/or in accordance with the method described in Siegrist and Eberle (Anal. Biochem. 1986; 159; 191-197), title “In situ melanin assay for MSH using mouse B16 melanoma cells in culture”. “No or negligible” means that the mean melanin accumulation which is induced by the compounds of the invention exceeds the mean melanin accumulation which is induced by at least one of the two compounds as exemplified in Example 2 by not more than about 40%, 30%, 20%, 15%, 10%, 5%, 2.5%, 2% or 1%, preferably under conditions which equate to or are identical with those set out in Example 2. The skilled person is able to justify which assay conditions/assays equate with the assay/conditions exemplified in the appended examples. The melanin accumulation evaluated in Example 2 is depicted in FIG. 3. The effect of the compounds of the invention on extracellular melanin accumulation is thus determinable by the methods disclosed herein. […]

In the case of `NC(=O)[C@@H]1CCCN1C(=O)[C@H](Cc1c[nH]cn1)NC(=O)[C@@H]1CCC(=O)N1` [TRH, L-Pyroglutamyl-L-histidyl-L-prolinamid], the “UVA-induced intracellular amplification of ROS (oxidative stress)” value in experiment [1] (10^-8 M peptide, 24 h pre-incubation, UVA 10 J/cm^2, significant, p<0.001 (FIG. 1)) is “suppressed”. The “effect on UVA-induced intracellular amplification of ROS compared to vitamin C (ascorbate)” value in experiment [1] (peptide 10^-8M vs vitamin C at 10^-2M as printed (FIG. 2)) is recorded as “comparable with that of vitamin C”.

Turning to NDP-α-MSH, the “melanotropic effect (extracellular melanin accumulation)” value in experiment [2] is “p<0.001 vs. control”.
